The values below come from ChEMBL document CHEMBL5291721, “A preclinical secondary pharmacology resource illuminates target-adverse drug reaction associations of marketed drugs” (Nat Commun, 2023).

Some results are limits rather than exact numbers.

One assay deals with Adenosine receptor A2a (Homo sapiens, UniProt P29274).
Another assay deals with T1, Adenosine receptor A3 (Homo sapiens, UniProt P0DMS8).
T1 sequence (P0DMS8 whole entry): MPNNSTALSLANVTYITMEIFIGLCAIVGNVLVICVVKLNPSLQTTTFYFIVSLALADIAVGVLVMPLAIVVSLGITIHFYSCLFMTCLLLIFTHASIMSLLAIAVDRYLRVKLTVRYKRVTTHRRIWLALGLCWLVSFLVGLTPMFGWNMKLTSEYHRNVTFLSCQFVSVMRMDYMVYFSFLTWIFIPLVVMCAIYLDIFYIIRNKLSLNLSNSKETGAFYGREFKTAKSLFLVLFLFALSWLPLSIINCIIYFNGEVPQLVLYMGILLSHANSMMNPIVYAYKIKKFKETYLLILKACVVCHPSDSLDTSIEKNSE

For assay [1], the target named is T2, Alpha-1A adrenergic receptor (Homo sapiens, UniProt P35348).
T2 sequence (P35348 whole entry): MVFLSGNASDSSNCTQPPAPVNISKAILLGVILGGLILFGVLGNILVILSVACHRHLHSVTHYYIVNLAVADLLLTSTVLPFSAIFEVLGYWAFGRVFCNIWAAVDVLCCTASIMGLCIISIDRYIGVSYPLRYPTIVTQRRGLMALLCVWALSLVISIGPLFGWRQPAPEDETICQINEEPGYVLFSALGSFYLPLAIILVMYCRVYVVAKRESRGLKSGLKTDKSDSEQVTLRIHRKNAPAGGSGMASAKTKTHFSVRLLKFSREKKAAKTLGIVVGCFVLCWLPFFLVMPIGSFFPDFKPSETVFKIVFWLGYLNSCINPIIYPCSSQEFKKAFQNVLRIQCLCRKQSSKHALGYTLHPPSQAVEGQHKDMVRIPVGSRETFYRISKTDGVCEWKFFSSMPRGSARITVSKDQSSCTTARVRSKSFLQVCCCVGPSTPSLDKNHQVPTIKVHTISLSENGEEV
It is filed as functional, cell-based.

Assay [2] concerns the target Beta-1 adrenergic receptor (Homo sapiens, UniProt P08588). Format: functional.
Assay [3] concerns the target T3, Type-1 angiotensin II receptor (Homo sapiens, UniProt P30556).
T3 sequence (P30556 whole entry): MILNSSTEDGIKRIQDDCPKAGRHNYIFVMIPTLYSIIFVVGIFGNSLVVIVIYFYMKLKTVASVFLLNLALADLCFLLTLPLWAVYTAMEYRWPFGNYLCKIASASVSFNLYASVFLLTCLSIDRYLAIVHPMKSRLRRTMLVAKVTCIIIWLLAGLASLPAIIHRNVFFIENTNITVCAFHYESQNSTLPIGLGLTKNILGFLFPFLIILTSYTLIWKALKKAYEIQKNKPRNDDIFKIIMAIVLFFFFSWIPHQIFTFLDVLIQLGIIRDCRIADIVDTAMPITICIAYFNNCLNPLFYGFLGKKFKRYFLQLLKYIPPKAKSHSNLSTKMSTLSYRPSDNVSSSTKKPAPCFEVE

The target of assay [4] is Neuronal acetylcholine receptor subunit alpha-4 (Homo sapiens, UniProt P43681).
The target of assay [5] is Growth hormone secretagogue receptor type 1 (Homo sapiens, UniProt Q92847).
A further assay addresses Histamine H2 receptor (Homo sapiens, UniProt P25021). It is filed as functional, cell-based.
In assay [6] the target is T4, Neuropeptide Y receptor type 1 (Homo sapiens, UniProt P25929).
T4 sequence (P25929 whole entry): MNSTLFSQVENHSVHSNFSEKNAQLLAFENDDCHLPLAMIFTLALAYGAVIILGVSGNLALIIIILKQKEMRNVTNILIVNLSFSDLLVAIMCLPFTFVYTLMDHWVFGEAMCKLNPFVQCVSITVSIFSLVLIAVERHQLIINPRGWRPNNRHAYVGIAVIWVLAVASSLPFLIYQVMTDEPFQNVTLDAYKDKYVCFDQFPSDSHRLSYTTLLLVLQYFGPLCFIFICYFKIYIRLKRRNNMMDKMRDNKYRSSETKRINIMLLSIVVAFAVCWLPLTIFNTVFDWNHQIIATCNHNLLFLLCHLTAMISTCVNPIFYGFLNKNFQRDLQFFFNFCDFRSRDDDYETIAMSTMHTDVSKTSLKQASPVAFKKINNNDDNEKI

Assay [7] addresses T5, Equilibrative nucleoside transporter 1 (Homo sapiens, UniProt Q99808).
T5 sequence (Q99808 whole entry): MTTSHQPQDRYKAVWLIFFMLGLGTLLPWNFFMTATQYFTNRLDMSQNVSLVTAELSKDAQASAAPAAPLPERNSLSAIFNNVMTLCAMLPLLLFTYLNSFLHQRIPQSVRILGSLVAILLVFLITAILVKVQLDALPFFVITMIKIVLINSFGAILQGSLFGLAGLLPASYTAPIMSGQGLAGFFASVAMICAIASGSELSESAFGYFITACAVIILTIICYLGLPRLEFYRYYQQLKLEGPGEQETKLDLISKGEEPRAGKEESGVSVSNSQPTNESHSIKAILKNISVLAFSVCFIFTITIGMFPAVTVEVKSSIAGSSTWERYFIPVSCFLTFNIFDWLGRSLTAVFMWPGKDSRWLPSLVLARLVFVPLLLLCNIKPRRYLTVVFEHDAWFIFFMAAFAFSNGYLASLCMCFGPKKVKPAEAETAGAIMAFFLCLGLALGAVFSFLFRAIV

Assay [8] addresses Sodium-dependent noradrenaline transporter (Homo sapiens, UniProt P23975).
Assay [9] deals with T6, 5-hydroxytryptamine receptor 1A (Homo sapiens, UniProt P08908).
T6 sequence (P08908 whole entry): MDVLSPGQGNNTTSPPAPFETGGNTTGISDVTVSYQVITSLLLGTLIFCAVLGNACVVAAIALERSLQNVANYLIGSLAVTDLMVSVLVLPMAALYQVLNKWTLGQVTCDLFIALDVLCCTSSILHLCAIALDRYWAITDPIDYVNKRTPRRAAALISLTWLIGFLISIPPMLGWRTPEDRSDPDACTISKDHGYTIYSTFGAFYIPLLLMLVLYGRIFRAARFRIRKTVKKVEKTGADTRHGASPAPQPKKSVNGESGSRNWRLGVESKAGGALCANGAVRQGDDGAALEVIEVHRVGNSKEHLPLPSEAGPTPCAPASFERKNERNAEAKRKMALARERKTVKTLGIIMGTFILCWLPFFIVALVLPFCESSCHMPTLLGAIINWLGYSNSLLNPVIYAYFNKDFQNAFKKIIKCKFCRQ
It is filed as functional, cell-based.
Further: assay procedure not described here.

Chain of Beta-1 adrenergic receptor (P08588 whole entry): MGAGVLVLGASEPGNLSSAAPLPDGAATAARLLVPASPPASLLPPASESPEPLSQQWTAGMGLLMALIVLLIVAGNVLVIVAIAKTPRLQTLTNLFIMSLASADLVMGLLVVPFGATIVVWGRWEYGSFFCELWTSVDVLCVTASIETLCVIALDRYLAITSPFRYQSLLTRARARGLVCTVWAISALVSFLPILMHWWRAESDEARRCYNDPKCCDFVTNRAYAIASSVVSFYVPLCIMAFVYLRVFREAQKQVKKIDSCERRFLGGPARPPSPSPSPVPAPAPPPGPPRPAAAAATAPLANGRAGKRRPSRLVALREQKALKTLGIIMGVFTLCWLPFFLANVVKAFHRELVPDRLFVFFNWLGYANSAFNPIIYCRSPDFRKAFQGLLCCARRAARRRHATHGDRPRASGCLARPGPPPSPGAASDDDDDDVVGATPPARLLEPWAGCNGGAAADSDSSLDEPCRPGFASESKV
Chain of Growth hormone secretagogue receptor type 1 (Q92847 whole entry): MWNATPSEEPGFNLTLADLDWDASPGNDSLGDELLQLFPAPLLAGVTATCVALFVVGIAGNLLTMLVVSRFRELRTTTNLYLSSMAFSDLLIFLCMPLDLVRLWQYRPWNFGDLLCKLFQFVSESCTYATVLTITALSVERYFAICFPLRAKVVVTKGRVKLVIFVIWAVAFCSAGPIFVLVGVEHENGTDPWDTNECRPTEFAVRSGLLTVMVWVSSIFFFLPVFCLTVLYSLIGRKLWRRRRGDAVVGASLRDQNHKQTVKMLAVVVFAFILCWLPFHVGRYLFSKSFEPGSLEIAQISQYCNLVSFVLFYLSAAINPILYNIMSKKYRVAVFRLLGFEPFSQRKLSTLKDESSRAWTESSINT
Chain of Histamine H2 receptor (P25021 whole entry): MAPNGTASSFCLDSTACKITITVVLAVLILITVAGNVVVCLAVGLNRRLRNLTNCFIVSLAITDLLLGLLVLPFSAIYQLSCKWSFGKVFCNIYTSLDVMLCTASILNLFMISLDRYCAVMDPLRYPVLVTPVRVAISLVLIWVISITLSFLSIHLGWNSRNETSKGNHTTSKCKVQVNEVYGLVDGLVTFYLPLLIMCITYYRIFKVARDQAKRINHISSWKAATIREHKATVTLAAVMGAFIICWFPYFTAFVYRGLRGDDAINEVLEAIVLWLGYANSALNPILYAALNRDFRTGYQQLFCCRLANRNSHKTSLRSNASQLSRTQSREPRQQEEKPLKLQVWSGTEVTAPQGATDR
Chain of Neuronal acetylcholine receptor subunit alpha-4 (P43681 whole entry): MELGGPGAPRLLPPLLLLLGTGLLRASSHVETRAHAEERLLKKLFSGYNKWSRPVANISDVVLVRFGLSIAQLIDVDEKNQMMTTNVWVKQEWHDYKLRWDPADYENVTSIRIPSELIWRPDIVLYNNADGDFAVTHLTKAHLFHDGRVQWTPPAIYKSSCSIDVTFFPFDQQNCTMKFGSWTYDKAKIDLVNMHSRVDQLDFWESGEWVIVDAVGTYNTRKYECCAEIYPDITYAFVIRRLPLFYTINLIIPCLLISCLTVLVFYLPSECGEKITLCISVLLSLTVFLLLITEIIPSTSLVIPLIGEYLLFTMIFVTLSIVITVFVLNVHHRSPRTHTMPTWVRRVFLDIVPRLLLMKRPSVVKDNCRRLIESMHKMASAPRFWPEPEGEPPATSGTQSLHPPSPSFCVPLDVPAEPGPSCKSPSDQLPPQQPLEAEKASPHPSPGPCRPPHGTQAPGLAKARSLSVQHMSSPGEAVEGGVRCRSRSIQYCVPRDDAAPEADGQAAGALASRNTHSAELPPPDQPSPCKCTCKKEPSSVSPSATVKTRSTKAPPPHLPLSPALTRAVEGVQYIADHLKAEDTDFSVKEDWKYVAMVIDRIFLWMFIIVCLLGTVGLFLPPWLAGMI
Chain of Sodium-dependent noradrenaline transporter (P23975 whole entry): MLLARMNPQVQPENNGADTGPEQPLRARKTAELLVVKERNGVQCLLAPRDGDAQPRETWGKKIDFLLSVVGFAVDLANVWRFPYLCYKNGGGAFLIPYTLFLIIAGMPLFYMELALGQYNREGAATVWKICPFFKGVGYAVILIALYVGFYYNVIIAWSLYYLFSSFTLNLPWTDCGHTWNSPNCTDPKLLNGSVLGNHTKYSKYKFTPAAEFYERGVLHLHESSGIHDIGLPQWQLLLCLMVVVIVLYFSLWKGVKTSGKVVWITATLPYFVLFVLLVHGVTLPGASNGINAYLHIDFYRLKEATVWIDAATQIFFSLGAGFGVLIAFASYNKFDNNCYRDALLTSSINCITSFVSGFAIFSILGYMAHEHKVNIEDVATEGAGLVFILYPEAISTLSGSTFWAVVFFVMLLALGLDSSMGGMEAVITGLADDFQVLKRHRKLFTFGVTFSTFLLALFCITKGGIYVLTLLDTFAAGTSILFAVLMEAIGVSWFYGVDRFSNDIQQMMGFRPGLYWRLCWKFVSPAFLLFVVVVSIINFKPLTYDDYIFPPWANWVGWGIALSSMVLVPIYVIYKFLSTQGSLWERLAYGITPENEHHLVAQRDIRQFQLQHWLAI
Chain of Adenosine receptor A2a (P29274 whole entry): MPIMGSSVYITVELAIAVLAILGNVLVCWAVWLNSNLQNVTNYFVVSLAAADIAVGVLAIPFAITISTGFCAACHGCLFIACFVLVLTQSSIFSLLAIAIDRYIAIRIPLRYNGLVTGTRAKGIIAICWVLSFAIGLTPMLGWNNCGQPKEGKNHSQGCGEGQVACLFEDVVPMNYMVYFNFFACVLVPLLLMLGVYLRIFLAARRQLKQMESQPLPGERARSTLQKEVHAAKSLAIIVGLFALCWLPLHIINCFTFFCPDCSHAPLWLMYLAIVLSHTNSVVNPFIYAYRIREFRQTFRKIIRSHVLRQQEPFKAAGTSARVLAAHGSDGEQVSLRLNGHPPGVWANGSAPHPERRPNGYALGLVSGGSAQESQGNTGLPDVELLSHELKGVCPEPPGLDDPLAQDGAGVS

One may read the AC50 as the concentration giving half of the maximal activity seen. A low value points to greater potency. `COc1ccc(CCNCC(O)COc2cccc(C)c2)cc1OC` (stereo not given) [BEVANTOLOL]: the AC50 on Adenosine receptor A2a was over 10 µM; on Adenosine receptor A3, over 10 µM; in [1] it was over 30 µM; in [2] it was 0.026 µM; in [3], over 10 µM; in assay [4] it was over 10 µM. The concentration at half-maximal activity (AC50) in assay [5] was over 10 µM; at Histamine H2 receptor it was over 30 µM; in [6] it was over 10 µM; in assay [7] it was over 30 µM; in assay [8], over 30 µM.
As for `Brc1c(NC2=NCCN2)ccc2nccnc12` [BRIMONIDINE], the AC50 was over 30 µM on Adenosine receptor A2a; over 30 µM at Adenosine receptor A3; 0.645 µM in [1]; over 30 µM in assay [2]; over 30 µM in assay [3]; over 30 µM in assay [4]. The concentration at half-maximal activity (AC50) (in assay [5]; at Histamine H2 receptor; in assay [6]; in [7]; in [8]) was over 30 µM in each case.
For the compound `CC(CC1c2ccccc2CCc2ccccc21)CN(C)C` (stereo not given) [BUTRIPTYLINE], the half-maximal activity concentration (AC50) (in assay [1]; on Histamine H2 receptor; in assay [9]) was over 30 µM throughout.
For `CC(C)(C)NCC(O)COc1cccc2c1CCC(=O)N2` (stereo not given) [CARTEOLOL], the AC50 was over 10 µM at Adenosine receptor A2a; over 10 µM at Adenosine receptor A3; over 30 µM in assay [1]; over 10 µM in assay [3]; over 10 µM in assay [4]; over 10 µM in assay [5]. For the same compound, the AC50 at Histamine H2 receptor was over 10 µM; in [9], 8.8 µM; in assay [6] it was over 10 µM; in assay [7], over 10 µM; in assay [8], over 10 µM.
As to `Clc1ccccc1C(c1ccccc1)(c1ccccc1)n1ccnc1` [CLOTRIMAZOLE], the concentration at half-maximal activity (AC50) was over 30 µM in assay [1]; over 10 µM in assay [2]; over 10 µM in assay [4]; over 10 µM on Histamine H2 receptor; over 10 µM in [9]; 19.9 µM in assay [8].
With `COc1ccc2c3c1O[C@H]1[C@@H](O)CC[C@H]4[C@@H](C2)N(C)CC[C@@]341` [DIHYDROCODEINE], the half-maximal activity concentration (AC50) (in assay [1]; on Histamine H2 receptor; in assay [9]) was over 30 µM each time.
For `NC(=O)OCC(COC(N)=O)c1ccccc1` [FELBAMATE], the AC50 (at Adenosine receptor A2a; on Adenosine receptor A3; in assay [2]; in assay [3]; in assay [4]; in assay [5]) was over 10 µM throughout. Further, the AC50 (on Histamine H2 receptor; in [9]; in [6]; in [7]; in assay [8]) was over 10 µM in each case.
With `Fc1ccc(C(c2ccccc2)(c2ccccc2F)n2ccnc2)cc1` (stereo not given) [FLUTRIMAZOLE], the concentration at half-maximal activity (AC50) at Adenosine receptor A2a was over 30 µM; at Adenosine receptor A3, 15 µM; in [1], over 30 µM; in [2] it was over 30 µM; in assay [3] it was over 30 µM; in assay [4], over 30 µM. Further, the AC50 in assay [5] is over 30 µM; on Histamine H2 receptor, over 30 µM; in assay [6] it was over 30 µM; in [7], over 10 µM; in [8], over 30 µM.
As for `Cc1c(OCC(F)(F)F)ccnc1C[S+]([O-])c1nc2ccccc2[nH]1` (stereo not given) [LANSOPRAZOLE], the AC50 on Adenosine receptor A2a was over 30 µM; on Adenosine receptor A3, 7.77 µM; in [1] it was over 30 µM; in [2] it was over 10 µM; in assay [3], over 30 µM; in [5], 9.67 µM. For the same compound, the AC50 on Histamine H2 receptor is over 10 µM; in assay [9], over 10 µM; in assay [6] it was 24.5 µM; in assay [7] it was over 30 µM; in [8], over 10 µM.
Take `Cc1cc(C(C)(C)C)c(O)c(C)c1CC1=NCCN1` [OXYMETAZOLINE]: the half-maximal activity concentration (AC50) (at Adenosine receptor A3; in [8]) was over 30 µM each time.
As to `C[C@H]1COc2c(C3(N)CC3)c(F)cc3c(=O)c(C(=O)O)cn1c23` [PAZUFLOXACIN], the concentration at half-maximal activity (AC50) (at Adenosine receptor A2a; at Adenosine receptor A3; in [2]; in assay [3]; in assay [4]; in assay [5]) was over 10 µM throughout. For the same compound, the concentration at half-maximal activity (AC50) (on Histamine H2 receptor; in assay [9]; in assay [6]; in [7]; in assay [8]) was over 10 µM each time.
In the case of `C[C@@H]1O[C@@H](O[C@@H]2C=C3CC[C@@H]4[C@H](CC[C@]5(C)[C@@H](c6ccc(=O)oc6)CC[C@]45O)[C@@]3(C)CC2)[C@H](O)[C@H](O)[C@H]1O` [PROSCILLARIDIN], the AC50 (on Adenosine receptor A2a; on Adenosine receptor A3; in [1]; in assay [2]; in assay [3]; in assay [4]) was over 30 µM throughout. In addition, the concentration at half-maximal activity (AC50) (in assay [5]; at Histamine H2 receptor; in [9]; in [6]; in assay [8]) was over 30 µM each time.
As to `CC/C(=C(\c1ccccc1)c1ccc(OCCN(C)C)cc1)c1ccccc1` [TAMOXIFEN], the concentration at half-maximal activity (AC50) in assay [1] is over 30 µM; in assay [2], 17.6 µM; in [4], over 30 µM; on Histamine H2 receptor, over 10 µM; in assay [9], over 10 µM; in assay [8], 8.83 µM.
For `CC1(C)CCC(CN2CCN(c3ccc(C(=O)NS(=O)(=O)c4ccc(NCC5CCOCC5)c([N+](=O)[O-])c4)c(Oc4cnc5[nH]ccc5c4)c3)CC2)=C(c2ccc(Cl)cc2)C1` [VENETOCLAX], the concentration at half-maximal activity (AC50) is 2.3 µM on Adenosine receptor A3 and 11 µM in [8].
